Data reported in publication PMC10819888, “Benzimidazole-Based Derivatives as Apoptotic Antiproliferative Agents: Design, Synthesis, Docking, and Mechanistic Studies” (Molecules, 2024).

Assays:
Experiment in all cases: NCI-60 one-dose assay
Format in all cases: cell-based
SNB-75 = settings: Homo sapiens, SNB-75 (CNS cancer), read-out: Cell Inhibition Percent
Procedure: (§1) The final compounds were submitted to the National Cancer Institute, Bethesda, USA, for screening in vitro for anti-cancer. […] compounds, 4a–j, 5, and 6, were selected according to the Development Therapeutic Program (DTP) protocol. The selected compounds were evaluated for their in vitro cytotoxic activity against a panel of sixty cancer cell lines (NCI-60 cell line panel) derived from six cell lines panel of leukemia, nine cell lines of lung cancer, six cell lines of CNS cancer, seven cell lines of colon cancer, eight cell lines of melanoma, six cell lines of ovarian cancer, eight cell lines of renal cancer, two cell lines of prostate cancer, and eight cell lines of breast cancer, representing the full nine human systems as leukemia, melanoma, and cancers of the lung, colon, brain, breast, ovary, kidney, and prostate.
(§2) The selected compounds 4a–j, 5, and 6 were tested at a single concentration of 10 µM. The screening results for the selected compounds are illustrated in Table 1.
(§3) The NCI anti-cancer screening methodology has been described in detail elsewhere (http://www.dtp.nci.nih.gov, accessed on 20 February 2021). Following the Drug Evaluation Branch protocol, National Cancer Institute, Bethesda, USA, a primary anti-cancer assay was performed on approximately 60 human tumor cell line panels derived from nine neoplastic diseases.

UO-31 = settings: Homo sapiens, UO-31 (Renal Cancer), read-out: Cell Inhibition Percent
Procedure: as §1, §2, §3

LOX IMVI = settings: Homo sapiens, LOX IMVI (Melanoma), read-out: Cell Inhibition Percent
Procedure: as §1, §2, §3

SN12C = settings: Homo sapiens, SN12C (Renal Cancer), read-out: Cell Inhibition Percent
Procedure: as §1, §2, §3

MDA-MB-468 = settings: Homo sapiens, MDA-MB-468 (Breast Cancer), read-out: Cell Inhibition Percent
Procedure: as §1, §2, §3

SF-295 = settings: Homo sapiens, SF-295 (CNS cancer), read-out: Cell Inhibition Percent
Procedure: as §1, §2, §3

SK-OV-3 = settings: Homo sapiens, SK-OV-3 (ovarian cancer), read-out: Cell Inhibition Percent
Procedure: as §1, §2, §3

A498 = settings: Homo sapiens, A498 (Renal Cancer), read-out: Cell Inhibition Percent
Procedure: as §1, §2, §3

SNB-19 = settings: Homo sapiens, SNB-19 (CNS cancer), read-out: Cell Inhibition Percent
Procedure: as §1, §2, §3

UACC-62 = settings: Homo sapiens, UACC-62 (Melanoma), read-out: Cell Inhibition Percent
Procedure: as §1, §2, §3

A549/ATCC = settings: Homo sapiens, A549/ATCC (Non-Small Cell Lung Cancer), read-out: Cell Inhibition Percent
Procedure: as §1, §2, §3

NCI-H322M = settings: Homo sapiens, NCI-H322M (Non-Small Cell Lung Cancer), read-out: Cell Inhibition Percent
Procedure: as §1, §2, §3

CCRF-CEM = settings: Homo sapiens, CCRF-CEM (Leukemia), read-out: Cell Inhibition Percent
Procedure: as §1, §2, §3

NCI-H226 = settings: Homo sapiens, NCI-H226 (Non-Small Cell Lung Cancer), read-out: Cell Inhibition Percent
Procedure: as §1, §2, §3

T-47D = settings: Homo sapiens, T47D, T-47D (Breast Cancer), read-out: Cell Inhibition Percent
Procedure: as §1, §2, §3

OVCAR-8 = settings: Homo sapiens, OVCAR-8 (ovarian cancer), read-out: Cell Inhibition Percent
Procedure: as §1, §2, §3

K-562 = settings: Homo sapiens, K562, K-562 (Leukemia), read-out: Cell Inhibition Percent
Procedure: as §1, §2, §3

OVCAR-4 = settings: Homo sapiens, OVCAR-4 (ovarian cancer), read-out: Cell Inhibition Percent
Procedure: as §1, §2, §3

HS 578T = settings: Homo sapiens, HS 578T (Breast Cancer), read-out: Cell Inhibition Percent
Procedure: as §1, §2, §3

CAKI-1 = settings: Homo sapiens, CAKI-1 (Renal Cancer), read-out: Cell Inhibition Percent
Procedure: as §1, §2, §3

OVCAR-3 = settings: Homo sapiens, OVCAR-3 (ovarian cancer), read-out: Cell Inhibition Percent
Procedure: as §1, §2, §3

NCI-H23 = settings: Homo sapiens, NCI-H23 (Non-Small Cell Lung Cancer), read-out: Cell Inhibition Percent
Procedure: as §1, §2, §3

HCC-2998 = settings: Homo sapiens, HCC-2998 (Colon Cancer), read-out: Cell Inhibition Percent
Procedure: as §1, §2, §3

KM12 = settings: Homo sapiens, KM12 (Colon Cancer), read-out: Cell Inhibition Percent
Procedure: as §1, §2, §3

TK-10 = settings: Homo sapiens, TK-10 (Renal Cancer), read-out: Cell Inhibition Percent
Procedure: as §1, §2, §3

HT29 = settings: Homo sapiens, HT-29, HT29 (Colon Cancer), read-out: Cell Inhibition Percent
Procedure: as §1, §2, §3

COLO 205 = settings: Homo sapiens, COLO 205 (Colon Cancer), read-out: Cell Inhibition Percent
Procedure: as §1, §2, §3

SK-MEL-5 = settings: Homo sapiens, SK-MEL-5 (Melanoma), read-out: Cell Inhibition Percent
Procedure: as §1, §2, §3

BT-549 = settings: Homo sapiens, BT-549 (Breast Cancer), read-out: Cell Inhibition Percent
Procedure: as §1, §2, §3

ACHN = settings: Homo sapiens, ACHN (Renal Cancer), read-out: Cell Inhibition Percent
Procedure: as §1, §2, §3

HCT-15 = settings: Homo sapiens, HCT-15 (Colon Cancer), read-out: Cell Inhibition Percent
Procedure: as §1, §2, §3

CCn1c(-c2ccc3[nH]c(-c4ccc(Cl)cc4)nc3c2)n[nH]c1=S [Compound 6, 4-ethyl-5-(2-(4-chlorophenyl)-1H-benzimidazol-5-yl)-2,4-dihydro-3H-1,2,4triazole-3-thione]
inhibition at 10 µM (SNB-75): 3.91% | inhibition at 10 µM (UO-31): 16.8% | inhibition at 10 µM (LOX IMVI): 0% | inhibition at 10 µM (SN12C): 0% | inhibition at 10 µM (MDA-MB-468): 0% | inhibition at 10 µM (SF-295): 0.56% | inhibition at 10 µM (SK-OV-3): 0% | inhibition at 10 µM (A498): 56.9% | inhibition at 10 µM (SNB-19): 0% | inhibition at 10 µM (UACC-62): 1.04% | inhibition at 10 µM (A549/ATCC): 0% | inhibition at 10 µM (NCI-H322M): 0% | inhibition at 10 µM (CCRF-CEM): 0% | inhibition at 10 µM (NCI-H226): 1.97% | inhibition at 10 µM (T-47D): 0.3% | inhibition at 10 µM (OVCAR-8): 0% | inhibition at 10 µM (K-562): 1.43% | inhibition at 10 µM (OVCAR-4): 0.6% | inhibition at 10 µM (HS 578T): 1.05% | inhibition at 10 µM (CAKI-1): 7.78% | inhibition at 10 µM (OVCAR-3): 0% | inhibition at 10 µM (NCI-H23): 4.53% | inhibition at 10 µM (HCC-2998): 0% | inhibition at 10 µM (KM12): 0% | inhibition at 10 µM (TK-10): 0% | inhibition at 10 µM (HT29): 2.07% | inhibition at 10 µM (COLO 205): 0% | inhibition at 10 µM (SK-MEL-5): 2.04% | inhibition at 10 µM (BT-549): 7.91% | inhibition at 10 µM (ACHN): 0% | inhibition at 10 µM (HCT-15): 1.62%

O=C(NN=Cc1ccccc1)c1ccc2[nH]c(-c3ccc(Cl)cc3)nc2c1 [Compound 4a, N′-Benzylidene-2-(4-chlorophenyl)-1H-benzimidazole-5-carbohydrazide]
inhibition at 10 µM (SNB-75): 10.7% | inhibition at 10 µM (UO-31): 8.73% | inhibition at 10 µM (LOX IMVI): 7.23% | inhibition at 10 µM (SN12C): 3.99% | inhibition at 10 µM (MDA-MB-468): 0% | inhibition at 10 µM (SF-295): 13.2% | inhibition at 10 µM (SK-OV-3): 4.7% | inhibition at 10 µM (A498): 22.1% | inhibition at 10 µM (SNB-19): 0% | inhibition at 10 µM (UACC-62): 0% | inhibition at 10 µM (A549/ATCC): 0% | inhibition at 10 µM (NCI-H322M): 0% | inhibition at 10 µM (CCRF-CEM): 11.2% | inhibition at 10 µM (NCI-H226): 5.74% | inhibition at 10 µM (T-47D): 18.2% | inhibition at 10 µM (OVCAR-8): 1.37% | inhibition at 10 µM (K-562): 7.37% | inhibition at 10 µM (OVCAR-4): 0% | inhibition at 10 µM (HS 578T): 7.92% | inhibition at 10 µM (CAKI-1): 1.57% | inhibition at 10 µM (OVCAR-3): 0% | inhibition at 10 µM (NCI-H23): 1.85% | inhibition at 10 µM (HCC-2998): 0% | inhibition at 10 µM (KM12): 3.8% | inhibition at 10 µM (TK-10): 0% | inhibition at 10 µM (HT29): 3.67% | inhibition at 10 µM (COLO 205): 0.76% | inhibition at 10 µM (SK-MEL-5): 4.85% | inhibition at 10 µM (BT-549): 4.12% | inhibition at 10 µM (ACHN): 3.26% | inhibition at 10 µM (HCT-15): 4.81%
